Results from PMC7995829 (ACS chemical biology, 2020).
Like-named read-outs stand apart in the source and are kept apart here.

What was measured:
[1] = molecular target: T1, BglX (Pseudomonas aeruginosa, UniProt Q9I311); test: inhibition assay; assay type: biochemical
[2] = molecular target: T1, BglX; test: inhibition assay; assay type: biochemical; settings: nonsubstrate, weak inhibitor

Structure (SMILES) | Ki [1] [mM] | Ki [2] [mM]
OC[C@H]1NC[C@H](O)[C@@H](O)[C@@H]1O [NOJ, 1-deoxynojirimycin] | 4.4 ± 0.5 | –
OC[C@H]1O[C@@H](O[C@H]2[C@H](O)[C@@H](O)C(O)O[C@@H]2CO)[C@H](O)[C@@H](O)[C@@H]1O (stereo partly shown) [cellobiose] | – | > 50
OC[C@H]1O[C@@H](O[C@H]2[C@H](O)[C@@H](O)C(O)O[C@@H]2CO)[C@H](O)[C@@H](O)[C@H]1O (stereo partly shown) [lactose] | – | > 50
OC1OC[C@@H](O[C@@H]2OC[C@@H](O[C@@H]3OC[C@@H](O)[C@H](O)[C@H]3O)[C@H](O)[C@H]2O)[C@H](O)[C@H]1O (stereo partly shown) [xylotriose] | – | > 50
